Reference: US12234216B2, “Isotopologues salts, crystalline forms, stereoisomers, of methylone and ethylone and methods of use thereof” (Terran Biosciences Inc., priority 2021, dated 2025)
Structures can show the parent of a compound that is named as a salt.

What was measured:
[1] = Plasma and brain concentration at the end of the zero maze study; assay type: in vivo, rat; conditions: terminal samples after 5, 15, 30 mg/kg ip; FIG. 68 and FIG. 69
Description: Terminal sampling. At the end of the study, terminal blood was collected from 2 of the vehicle treated rats (>5 mL) and from all methylone HCl treated rats (500 uL) by CP under CO2. Blood samples were placed into Eppendorf tubes on ice containing 22 μL/mL blood (vehicle treated) or 11 μL EDTA (93 mg/mL) (Methylone HCl treated rats) and gently mixed. After no longer than 30 min, blood samples were centrifuged at 10,000 rpm×3 min and plasma samples (>2 mL (vehicle) or 2×100 μL (Methylone HCl treated) placed into Eppendorf tubes (Vehicle) or 96 well plates on dry ice. Immediately after blood sampling, brains were excised, rinsed in saline, blotted, weighed and snap-frozen in liquid N2. All samples were stored at −20° C. until dispatched on dry ice for analysis.
Terminal sampling. At the end of the study, terminal blood was collected from 2 of the vehicle treated rats (>5 mL) and from all S-methylone HCl treated rats (500 uL) by CP under CO2. Blood samples were placed into Eppendorf tubes on ice containing 22 μL/mL blood (vehicle treated) or 11 μL EDTA (93 mg/mL) (S-methylone HCl treated rats) and gently mixed. […]

[2] = tested on: participants diagnosed with at least moderate post-traumatic stress disorder (PTSD); assay: Double-blind, randomized, placebo-controlled clinical trial of methylone-assisted psychotherapy in PTSD; assay type: in vivo, human
Description: A multicenter, randomized, double-blind, placebo-controlled trial is conducted to assess the efficacy and safety of methylone-assisted psychotherapy versus psychotherapy with placebo control in participants diagnosed with at least moderate post-traumatic stress disorder (PTSD).
This multicenter, randomized, double-blind, placebo-controlled trial is conducted at various sites in the United States with IRB approval from each study site. A flexible dose of methylone hydrochloride salt or placebo, followed by a supplemental half-dose unless contraindicated by patient's previous response or medical history, is also administered during the Treatment Period with psychotherapy in at least 3 blinded monthly Experimental Sessions. The Supplemental Dose extends the duration of drug effects on the participants during an Experimental Session. Methylone test groups are further subdivided into specific groups receiving only racemic methylone hydrochloride salt, S-methylone hydrochloride salt, or R-methylone hydrochloride salt. An optional Risk Evaluation and Mitigation Strategy (REMS) Protocol may be implemented for the racemic methylone, S-methylone, and placebo-groups. The Treatment Period lasts for approximately 12 weeks. During the Treatment Period, each Experimental Session is followed by three Intervening Sessions of non-drug psychotherapy. Each Experimental Session involves an overnight stay. The Primary Outcome measure, the change in Clinician Administered PTSD Scale for DSM-5 (CAPS-5), is determined by a blinded Independent Rater (IR) pool multiple times throughout the study. The study consists of separate periods for each participant. Initially, prospective participants undergo a Screening Period involving an initial eligibility assessment, a medical history intake, informed consent, and enrollment of eligible participants. Next, a Preparation Period is undertaken for enrolled participants involving medication tapering and clinical baseline assessments to confirm each participant meets enrollment criteria. As part of the Preparation Period, a detailed assessment of co-morbidities to PTSD is recorded. Participants may remain on prescribed courses of selective serotonin reuptake inhibitor (SSRI) or serotonin and norepinephrine reuptake inhibitor (SNRI) treatment. Dosages and/or frequency of administration of a prescribed SSRI or SNRI may be adjusted to fit within study parameters. Participants may be required to taper a prescribed course of medication in order to maintain eligibility within the study. The Treatment Period consists of three monthly Experimental Sessions and associated Intervening Sessions of integrative behavioral psychotherapy. The Treatment Period lasts approximately 12 weeks. Following the Treatment Period is a Follow-up Period and Study Conclusion. During the Follow-up Period and Study Conclusion, participants complete 4 weeks with no study visits, followed by a Study Conclusion visit.
This study compares the effects of three blinded Experimental Sessions of psychotherapy in combination with flexible doses of methylone or placebo administered as described below. Non-drug preparatory and intervening psychotherapy sessions are also included. Patient's weight is determined for dosage calculation. Initial dose is 100 mg unless this will result in a dosage of less than 1.5 mg/kg of patient weight. Initial dose thereby adjusted upward in 25 mg increments to deliver the lowest dose possible of at least 1.5 mg/kg of patient weight. Initial dose for Experimental Session 2 and 3 is cumulative dose calculated by adding the initial dose plus REMS protocol dose used the previous Experimental Session for each patient.
Randomization occurs prior to the initiation of Experimental Session 1. Each participant is provided the next randomized number in a sequence by a blinded study monitor. […]

[3] = Solubility screen (solvent aliquots, visual inspection); assay type: physicochemical
Description: The experiments were carried out by adding the test solvent in aliquots to weighed portions of solid. Whether dissolution had occurred was judged by visual inspection after addition of each solvent aliquot. Solubility numbers recorded in Table 4 were calculated by dividing the weight of the sample by the total amount of solvent used to dissolve the sample. The actual solubilities may be greater than the numbers calculated because of the use of solvent aliquots that were too large or because of slow dissolution rates. All solubility measurements were carried out at room temperature unless noted otherwise.

[4] = Study Conclusion, vs placebo-treated controls

Compound: CNC(C)C(=O)c1ccc2c(c1)OCO2 (racemic) [(rac)-Methylone Hydrochloride, 3,4-methylenedioxy-N-methylcathinone hydrochloride]
- concentration in plasma and brain [1]: increased in both brain and plasma at the higher doses
- CAPS-5 assessments compared to placebo-treated controls ([2]; Intervening Session 1C, 2C, 3C and Study Conclusion): Significant improvements in CAPS-5 assessments
- daytime sleepiness as measured by ESS ([2]; Study Conclusion): significant improvement in lessening daytime sleepiness
- clinician-rated functional impairment score as measured by SDS [2, 4]: significant improvement in clinician-rated functional impairment score
- depression as measured by HAM-D [2, 4]: significant improvement depression
- change in CAPS-5 assessment compared to the placebo group ([2]; Study Conclusion, 100-200 mg p.o. initial dose, 3 Experimental Sessions with psychotherapy): significant mean reduction in CAPS-5 assessment
- Solubility ([3]; MeOH, room temperature): 48 mg/mL
- Solubility ([3]; MeOH/CHCl3 50/50, room temperature): 45 mg/mL
